{"source": "paper PMC4695389", "about": "“Non-classical amine recognition evolved in a large clade of olfactory receptors” (eLife, 2015)", "key": {"zebrafish TAAR13c": {"target": "T1, zebrafish TAAR13c (Danio rerio, UniProt Q5QNP2)", "T1 construct": "expressed in transfected cells; host or cells: HEK-293", "T1 sequence (Q5QNP2 1-341)": "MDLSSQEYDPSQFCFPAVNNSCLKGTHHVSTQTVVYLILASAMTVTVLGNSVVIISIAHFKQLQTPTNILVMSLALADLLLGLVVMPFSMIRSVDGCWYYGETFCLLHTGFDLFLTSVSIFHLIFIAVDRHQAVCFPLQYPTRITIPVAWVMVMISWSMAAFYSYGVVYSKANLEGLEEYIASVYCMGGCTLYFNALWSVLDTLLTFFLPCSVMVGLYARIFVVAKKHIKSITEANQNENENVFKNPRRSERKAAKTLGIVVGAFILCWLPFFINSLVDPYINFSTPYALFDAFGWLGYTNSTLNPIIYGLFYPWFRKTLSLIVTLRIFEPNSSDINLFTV", "experiment": "cell-based"}, "TAAR12i": {"target": "T2, TAAR12i (Danio rerio, UniProt Q5QNN0, F195V/V105Y/V8A)", "T2 sequence (Q5QNN0 1-340 V8A/V105Y/F195V)": "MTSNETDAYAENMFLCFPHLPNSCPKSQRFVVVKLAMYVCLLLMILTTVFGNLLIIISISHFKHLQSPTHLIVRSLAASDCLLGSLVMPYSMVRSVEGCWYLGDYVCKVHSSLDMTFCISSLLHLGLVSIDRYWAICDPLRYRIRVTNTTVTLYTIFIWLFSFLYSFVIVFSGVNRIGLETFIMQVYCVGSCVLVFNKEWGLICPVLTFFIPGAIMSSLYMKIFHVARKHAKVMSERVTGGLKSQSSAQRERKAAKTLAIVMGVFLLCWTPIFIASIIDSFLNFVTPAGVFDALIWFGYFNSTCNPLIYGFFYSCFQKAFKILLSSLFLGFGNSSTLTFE", "experiment": "Cre-Seap reporter gene assay, TAAR12i in Hana3A cells", "type": "cell-based, zebrafish"}, "zebrafish TAAR10a": {"target": "T3, zebrafish TAAR10a (Danio rerio, UniProt Q5QNP6, I156V/V182I)", "T3 sequence (Q5QNP6 1-336 I156V/V182I)": "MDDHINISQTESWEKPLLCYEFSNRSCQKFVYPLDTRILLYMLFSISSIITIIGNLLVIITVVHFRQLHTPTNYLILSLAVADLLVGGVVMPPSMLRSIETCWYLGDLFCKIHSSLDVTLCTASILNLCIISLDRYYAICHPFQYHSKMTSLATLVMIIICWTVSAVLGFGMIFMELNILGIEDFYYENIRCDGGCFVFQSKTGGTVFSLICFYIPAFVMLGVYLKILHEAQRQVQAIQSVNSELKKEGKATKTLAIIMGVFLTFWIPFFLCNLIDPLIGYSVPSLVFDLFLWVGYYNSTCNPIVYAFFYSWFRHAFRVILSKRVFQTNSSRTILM", "experiment": "cell-based", "conditions": "HEK-293 cells, Cre-Seap reporter"}, "zebrafish TAAR13e": {"target": "T4, zebrafish TAAR13e (Danio rerio, UniProt Q5QNP8, I215V/V266I)", "T4 sequence (Q5QNP8 1-341 I215V/V266I)": "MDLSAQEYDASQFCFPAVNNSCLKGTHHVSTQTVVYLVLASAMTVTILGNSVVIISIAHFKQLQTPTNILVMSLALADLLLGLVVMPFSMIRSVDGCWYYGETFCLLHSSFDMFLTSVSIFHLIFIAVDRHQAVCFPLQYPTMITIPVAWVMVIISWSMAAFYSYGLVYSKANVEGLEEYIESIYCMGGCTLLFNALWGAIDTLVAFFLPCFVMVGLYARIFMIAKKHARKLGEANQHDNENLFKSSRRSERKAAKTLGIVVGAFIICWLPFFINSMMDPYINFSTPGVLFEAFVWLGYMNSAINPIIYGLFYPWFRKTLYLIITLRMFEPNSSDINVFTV", "experiment": "cell-based", "conditions": "HEK-293 cells, Cre-Seap reporter"}, "zebrafish TAAR14d": {"target": "T5, zebrafish TAAR14d (Danio rerio, UniProt U3JB35)", "T5 sequence (U3JB35 1-328)": "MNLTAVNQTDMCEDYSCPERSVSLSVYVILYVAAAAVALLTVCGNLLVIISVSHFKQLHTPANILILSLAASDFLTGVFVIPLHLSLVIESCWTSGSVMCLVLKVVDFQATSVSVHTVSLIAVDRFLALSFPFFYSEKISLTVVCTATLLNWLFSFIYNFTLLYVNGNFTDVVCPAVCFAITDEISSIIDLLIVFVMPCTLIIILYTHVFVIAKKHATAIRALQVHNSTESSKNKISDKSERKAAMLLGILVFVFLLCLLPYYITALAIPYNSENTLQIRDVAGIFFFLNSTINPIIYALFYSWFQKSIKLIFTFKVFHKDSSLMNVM", "experiment": "cell-based", "conditions": "HEK-293 cells, Cre-Seap reporter"}, "goldfish": {"test_system": "goldfish", "set-up": "method as in Rolen, et al., 2003; Hara, 2006", "conditions": "ref Rolen, et al., 2003, Hara, 2006; cited from earlier work"}, "zebrafish TAAR13d": {"target": "zebrafish TAAR13d (Danio rerio, UniProt Q5QNQ1, I38V/T66P/V128I/V187I)", "sequence (Q5QNQ1 entry or part of it I38V/T66P/V128I/V187I)": "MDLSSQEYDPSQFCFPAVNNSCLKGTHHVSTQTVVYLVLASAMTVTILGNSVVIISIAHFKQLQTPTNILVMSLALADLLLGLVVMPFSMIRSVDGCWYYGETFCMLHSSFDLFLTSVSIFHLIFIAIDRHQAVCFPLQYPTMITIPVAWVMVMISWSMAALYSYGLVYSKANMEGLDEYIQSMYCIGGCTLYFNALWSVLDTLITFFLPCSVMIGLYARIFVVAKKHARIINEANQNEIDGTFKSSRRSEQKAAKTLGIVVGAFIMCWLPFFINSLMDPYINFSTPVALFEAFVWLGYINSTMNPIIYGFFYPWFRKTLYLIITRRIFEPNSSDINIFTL", "experiment": "cell-based", "conditions": "for EC50: HEK-293 cells, Cre-Seap reporter"}, "zebrafish TAAR13a": {"target": "zebrafish TAAR13a (Danio rerio, UniProt Q5QNP9, F294L/F316L/I267M/N226K/T142R)", "sequence (Q5QNP9 1-341 T142R/N226K/I267M/F294L/F316L)": "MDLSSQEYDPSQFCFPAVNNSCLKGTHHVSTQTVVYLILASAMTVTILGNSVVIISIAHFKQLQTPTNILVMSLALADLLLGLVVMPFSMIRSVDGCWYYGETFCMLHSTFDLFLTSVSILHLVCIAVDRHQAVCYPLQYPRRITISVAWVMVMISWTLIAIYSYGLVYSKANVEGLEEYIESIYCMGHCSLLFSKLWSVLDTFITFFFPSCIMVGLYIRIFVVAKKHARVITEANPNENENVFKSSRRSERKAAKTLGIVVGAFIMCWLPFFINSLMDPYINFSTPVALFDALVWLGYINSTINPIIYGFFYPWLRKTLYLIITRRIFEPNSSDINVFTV", "experiment": "cell-based", "conditions": "HEK-293 cells, Cre-Seap reporter"}, "TAAR16c D^5.42A mutant": {"test_system": "TAAR16c D^5.42A mutant", "experiment": "Cre-Seap reporter gene assay, TAAR16c D^5.42A mutant", "type": "cell-based, zebrafish"}, "TAAR13c^D112A": {"target": "T6, TAAR13c^D112A (Danio rerio, UniProt Q5QNP2, D112A)", "T6 construct": "expressed in transfected cells; host or cells: HEK-293", "T6 sequence (Q5QNP2 1-341 D112A)": "T1 sequence (Q5QNP2 1-341) with D112A", "type": "cell-based", "conditions": "any concentration tested, up to 1 mM"}, "zebrafish": {"test_system": "zebrafish", "set-up": "method as in Hussain et al., 2013", "conditions": "ref Hussain et al., 2013; cited from earlier work"}, "zebrafish TAAR16f": {"target": "T7, zebrafish TAAR16f (Danio rerio, UniProt A0AC58GNM0, L317F/N20S/N8I/T68S, form not given)", "T7 sequence (A0AC58GNM0 1-331 N8I/N20S/T68S/L317F)": "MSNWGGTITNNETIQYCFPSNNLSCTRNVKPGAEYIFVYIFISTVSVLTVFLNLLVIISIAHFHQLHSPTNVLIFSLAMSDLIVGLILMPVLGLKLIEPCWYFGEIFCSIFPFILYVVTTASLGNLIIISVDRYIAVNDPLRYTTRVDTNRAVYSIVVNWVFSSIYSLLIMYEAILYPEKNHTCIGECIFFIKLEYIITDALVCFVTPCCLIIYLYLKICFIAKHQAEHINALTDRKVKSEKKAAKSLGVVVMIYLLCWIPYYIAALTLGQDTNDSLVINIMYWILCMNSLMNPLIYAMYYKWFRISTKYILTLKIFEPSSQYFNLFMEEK", "type": "cell-based", "conditions": "for EC50: HEK-293 cells, Cre-Seap reporter"}, "TAAR16f D^5.42A mutant": {"test_system": "TAAR16f D^5.42A mutant", "experiment": "Cre-Seap reporter gene assay, TAAR16f D^5.42A mutant", "type": "cell-based, zebrafish"}, "zebrafish TAAR16c": {"target": "zebrafish TAAR16c (Danio rerio, UniProt A0AC58H3H2, N266T)", "sequence (A0AC58H3H2 entry or part of it N266T)": "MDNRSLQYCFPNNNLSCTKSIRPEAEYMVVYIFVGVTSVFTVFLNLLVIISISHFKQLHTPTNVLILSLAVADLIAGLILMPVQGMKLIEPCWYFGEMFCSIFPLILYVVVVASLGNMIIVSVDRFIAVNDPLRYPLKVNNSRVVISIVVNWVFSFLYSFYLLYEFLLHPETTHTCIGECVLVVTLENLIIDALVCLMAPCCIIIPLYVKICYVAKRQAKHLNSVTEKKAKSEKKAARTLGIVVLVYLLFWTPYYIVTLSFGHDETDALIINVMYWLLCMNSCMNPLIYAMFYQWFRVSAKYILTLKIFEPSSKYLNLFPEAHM", "type": "cell-based"}, "TAAR10b": {"target": "T8, TAAR10b (Danio rerio, UniProt Q5QNN3, A166T/H113R/V182I/V259M)", "T8 sequence (Q5QNN3 1-336 H113R/A166T/V182I/V259M)": "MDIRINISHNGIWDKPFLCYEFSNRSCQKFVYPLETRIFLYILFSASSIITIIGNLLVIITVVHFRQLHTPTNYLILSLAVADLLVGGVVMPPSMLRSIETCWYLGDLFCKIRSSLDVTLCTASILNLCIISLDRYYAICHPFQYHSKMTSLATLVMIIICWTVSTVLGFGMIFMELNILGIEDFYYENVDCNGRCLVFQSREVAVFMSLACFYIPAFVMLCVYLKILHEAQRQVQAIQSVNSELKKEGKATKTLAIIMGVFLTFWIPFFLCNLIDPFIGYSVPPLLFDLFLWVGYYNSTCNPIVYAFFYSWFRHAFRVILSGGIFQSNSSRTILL", "experiment": "Cre-Seap reporter gene assay, TAAR10b in Hana3A cells", "type": "cell-based, zebrafish"}}, "note": "Changes are numbered by the printed parent chain. Where “and” joins values, the source holds several entries; their conditions need not be identical. Equal entries are not always repeated. Entries after “also recorded” stand apart in the source; their conditions may differ. Where two headings read alike, the source gives them in different places.", "data": [{"smiles": "COc1cc(CCN)ccc1O", "note": "[3-methoxytyramine]", "values": [{"measurement": "activation of wild type TAAR13c", "setting": "zebrafish TAAR13c; any concentration tested", "value": "failed to activate"}, {"measurement": "EC50", "setting": "TAAR12i", "value": 100, "unit": "µM"}]}, {"smiles": "COc1ccc2[nH]cc(CCN)c2c1", "note": "[5-methoxytryptamine]", "values": [{"measurement": "EC50", "setting": "zebrafish TAAR10a; EC50, TAAR10a", "value": "~20", "unit": "µM"}]}, {"smiles": "NCCCCN=C(N)N", "note": "[Agmatine]", "values": [{"measurement": "EC50", "setting": "zebrafish TAAR13e", "value": "~1000 nM and 1000 nM"}, {"measurement": "EC50", "setting": "zebrafish TAAR14d", "value": "~100 µM and 100 µM"}, {"measurement": "feeding-associated pecking behavior", "setting": "goldfish", "value": "increase feeding-associated pecking behavior"}]}, {"smiles": "NCCc1c[nH]cn1", "note": "[Histamine]", "values": [{"measurement": "EC50", "setting": "zebrafish TAAR13d", "value": "~7000", "unit": "nM"}, {"measurement": "EC50", "setting": "zebrafish TAAR13a", "value": "~20 µM and 20 µM"}]}, {"smiles": "CN1CCCCC1", "note": "[N-methylpiperidine]", "values": [{"measurement": "response of TAAR16c with charge-neutralizing mutation of Asp^5.42", "setting": "TAAR16c D^5.42A mutant", "value": "completely eliminated responses"}]}, {"smiles": "NCCCCCN", "note": "[cadaverine]", "values": [{"measurement": "EC50", "setting": "zebrafish TAAR13c; HEK-293 cells, Cre-Seap reporter, read-out: EC50 (half maximal response), TAAR13c", "value": "~10 µM and 10 µM"}, {"measurement": "activation of TAAR13c D112A mutant", "setting": "TAAR13c^D112A", "value": "abrogates cadaverine responsiveness; also recorded: failed to activate"}, {"measurement": "feeding-associated pecking behavior", "setting": "goldfish", "value": "increase feeding-associated pecking behavior"}, {"measurement": "avoidance behavior", "setting": "zebrafish", "value": "evoke avoidance behavior"}]}, {"smiles": "NCCCN", "note": "[diaminopropane]", "values": [{"measurement": "reduced sensitivity of TAAR13d relative to putrescine", "setting": "zebrafish TAAR13d; compared with putrescine", "value": "~ 3,000 fold"}]}, {"smiles": "CC(C)CCO", "note": "[isoamyl alcohol]", "values": [{"measurement": "detection by TAAR16f", "setting": "zebrafish TAAR16f", "value": "failed to detect"}, {"measurement": "recognition by TAAR16f at 1 mM", "setting": "zebrafish TAAR16f", "value": "not"}]}, {"smiles": "CC(C)CCN", "note": "[isoamylamine]", "values": [{"measurement": "recognition by TAAR16f at 1 mM", "setting": "zebrafish TAAR16f; 1 mM", "value": "recognizes"}, {"measurement": "EC50", "setting": "zebrafish TAAR16f", "value": "~200", "unit": "µM"}, {"measurement": "EC50", "setting": "zebrafish TAAR16f; listed as Isoamylamine", "value": 200, "unit": "µM"}, {"measurement": "response of TAAR16f with charge-neutralizing mutation of Asp^5.42", "setting": "TAAR16f D^5.42A mutant", "value": "completely eliminated responses"}]}, {"smiles": "C1CCNCC1", "note": "[piperidine]", "values": [{"measurement": "agonism of TAAR16c", "setting": "zebrafish TAAR16c", "value": "partial agonists"}]}, {"smiles": "NCCCCN", "note": "[putrescine]", "values": [{"measurement": "EC50", "setting": "zebrafish TAAR13d", "value": "~1000 nM and 1000 nM"}, {"measurement": "feeding-associated pecking behavior", "setting": "goldfish", "value": "increase feeding-associated pecking behavior"}, {"measurement": "avoidance behavior", "setting": "zebrafish", "value": "evoke avoidance behavior"}]}, {"smiles": "C1CCNC1", "note": "[pyrrolidine]", "values": [{"measurement": "agonism of TAAR16c", "setting": "zebrafish TAAR16c; any concentration tested", "value": "partial agonists"}]}, {"smiles": "NCCc1c[nH]c2ccc(O)cc12", "note": "[serotonin]", "values": [{"measurement": "EC50", "setting": "zebrafish TAAR10a; read-out: EC50, TAAR10a", "value": "~0.5 µM and 0.5 µM"}]}, {"smiles": "C1CCOC1", "note": "[tetrahydrofuran]", "values": [{"measurement": "agonism of TAAR16c", "setting": "zebrafish TAAR16c", "value": "did not activate"}]}, {"smiles": "NCCc1c[nH]c2ccccc12", "note": "[tryptamine]", "values": [{"measurement": "EC50", "setting": "zebrafish TAAR10a; read-out: EC50, TAAR10a", "value": "~70", "unit": "µM"}, {"measurement": "EC50", "setting": "TAAR10b", "value": 50, "unit": "µM"}]}]}
